Where “and” joins values, the source holds several entries; their conditions need not be identical. Identical values can stand only once. Like-named read-outs stand apart in the source and are kept apart here.
How the values were obtained:
Type in all cases: binding
[1] = target: GFP-tagged CBP bromodomain (Homo sapiens, UniProt Q92793); assay: Microscale thermophoresis (MST); settings: for Response (Dose Response Curve): MST raw response; for Kd: MST; for Bound (Fit Results): fitted MST response of bound state; for Bound (Fit Results) / Unbound (Fit Results): target clGFP-CBPBRD 5e-8; for Unbound (Fit Results): fitted MST response of unbound state
Sequence of GFP-tagged CBP bromodomain (Q92793 1085-1192 limits assumed): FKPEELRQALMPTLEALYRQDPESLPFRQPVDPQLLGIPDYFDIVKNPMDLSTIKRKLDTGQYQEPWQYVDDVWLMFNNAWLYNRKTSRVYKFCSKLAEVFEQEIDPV
Description: MST experiments were performed in a Monolith NT.115 Pico instrument (NanoTemper Technologies) following published procedures. […] MST traces were recorded using standard parameters: 5 s MST power off, 30 s MST power on and 5 s MST power off. Measurements were taken at -1-0 s (cold region) and 10 s (hot region) and data were analyzed using the NTAnalysis software.

[2] = target: T1, EP300 bromodomain (Homo sapiens, UniProt Q09472); assay: Differential scanning fluorimetry (DSF) thermal shift
T1 construct: 6xHis (cleaved yes); host or cells: E. coli BL21 (DE3) RIL
T1 sequence (Q09472 1048-1161): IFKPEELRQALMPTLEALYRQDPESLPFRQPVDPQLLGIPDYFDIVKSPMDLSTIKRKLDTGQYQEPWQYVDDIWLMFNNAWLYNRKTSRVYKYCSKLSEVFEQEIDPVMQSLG
Description: (§1) At OD600 of 0.6, the culture was cooled down to 18 °C and induced with 0.1 mM IPTG. After 18 h growth, the culture was harvested by centrifugation at 6000 × g for 25 min and stored at -80 °C. Harvested cell pellets were re-suspended in 50 mM Na/K phosphate buffer (pH 7.4) containing 100 mM NaCl, 40 mM imidazole, 0.01% w/v lysozyme and 0.01% v/v Triton X-100 at 4 °C for 1 h, subjected to sonication and the lysate was clarified by centrifugation (30,000 × g for 45 min at 4 °C). Proteins were purified by FPLC at 4 °C using columns and chromatography materials from GE Healthcare. […] Proteins were purified to homogeneity by size exclusion chromatography using Superdex 75 equilibrated with elution buffer (50 mM HEPES pH 7.5, 100 mM NaCl, 2 mM DTT). All BRDs eluted as monomeric protein and were of crystallization grade quality (>95% purity as judged by SDS-PAGE). Pool fractions were combined, concentrated to 10–12 mg/ml, and aliquots were flash-frozen in liquid N2 and stored at −80 °C.
(§2) DSF experiments were performed with an Applied Biosystem StepOnePlus real-time PCR system (Thermo Fisher Scientific) using 96-well format plates, assayed in quadruplicate. For thermal shift determination, 5 μM protein was mixed with 100 μM compound in 50 mM HEPES, pH 7.5, 150 mM NaCl, 2 mM DTT, 2% DMSO, 5X SYPRO Orange (Thermo Fisher Scientific) in 20 μL reaction volumes. Reaction mixtures were heated from 25 to 95 °C at 1 °C/min with fluorescence readings every 0.5 °C at 610 nm. The observed thermal shift (ΔTm) was recorded as the difference between the Tm of sample and DMSO reference wells.

[3] = target: T2, BRD4-BD1 (BRD4-1) (Homo sapiens, UniProt O60885); assay: as above; settings: BRD4-BD1
T2 construct: BRD4-BD1 (residues 44-168); 6xHis (cleaved yes); host or cells: E. coli BL21 (DE3) RIL
Description: as §1, §2

[4] = target: T3, CBP bromodomain (Homo sapiens, UniProt Q92793); assay: as above; settings: for ΔTm (°C) CBP: DSF
T3 construct: CBP (residues 1081-1197); 6xHis (cleaved yes); host or cells: E. coli BL21 (DE3) RIL
T3 sequence (Q92793 1081-1197): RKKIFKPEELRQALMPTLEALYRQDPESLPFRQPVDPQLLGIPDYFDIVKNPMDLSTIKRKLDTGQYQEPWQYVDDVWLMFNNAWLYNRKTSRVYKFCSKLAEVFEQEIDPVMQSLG
Description: as §1, with “After” for “At OD600 of 0.6, the culture was cooled down to 18 °C and induced with 0.1 mM IPTG. After”, “All BRDs eluted as monomeric protein and were of crystallization grade quality (>95% purity as judged by SDS-PAGE).” left out
DSF experiments were performed with an Applied Biosystem StepOnePlus real-time PCR system (Thermo Fisher Scientific) using 96-well format plates, assayed in quadruplicate. For thermal shift determination, 5 μM protein was mixed with 100 μM compound in 50 mM HEPES, pH 7.5, 150 mM NaCl, 2 mM DTT, 2% DMSO, 5X SYPRO Orange (Thermo Fisher Scientific) in 20 μL reaction volumes.

[5] = Dose 1.52588e-10, single replicate run
[6] = Dose 3.05176e-10, single replicate run
[7] = Dose 6.10352e-10, single replicate run
[8] = Dose 1.2207e-9, single replicate run
[9] = Dose 2.44141e-9, single replicate run
[10] = Dose 4.88281e-9, single replicate run
[11] = Dose 9.76563e-9, single replicate run
[12] = Dose 1.95313e-8, single replicate run
[13] = Dose 3.90625e-8, single replicate run
[14] = Dose 7.8125e-8, single replicate run
[15] = Dose 1.5625e-7, single replicate run
[16] = Dose 3.125e-7, single replicate run
[17] = Dose 6.25e-7, single replicate run
[18] = Dose 1.25e-6, single replicate run
[19] = Dose 2.5e-6, single replicate run
[20] = Dose 5e-6, single replicate run
[21] = single replicate run, target clGFP-CBPBRD, TargetConcentration 5e-8, MST-Power Medium, unit inferred, read-out: Kd (Fit Results, Fit Model: Kd)

| Structure (SMILES) | Response (Dose Response Curve) [1, 5] | Response (Dose Response Curve) [1, 6] | Response (Dose Response Curve) [1, 7] | Response (Dose Response Curve) [1, 8] | Response (Dose Response Curve) [1, 9] | Response (Dose Response Curve) [1, 10] | Response (Dose Response Curve) [1, 11] | Response (Dose Response Curve) [1, 12] | Response (Dose Response Curve) [1, 13] | Response (Dose Response Curve) [1, 14] | Response (Dose Response Curve) [1, 15] | Response (Dose Response Curve) [1, 16] | Response (Dose Response Curve) [1, 17] | Response (Dose Response Curve) [1, 18] | Response (Dose Response Curve) [1, 19] | Response (Dose Response Curve) [1, 20] | Kd [1, 21] | Bound (Fit Results) ([1]; single replicate run) | Unbound (Fit Results) ([1]; single replicate run) | further results |
| --- | --- | --- | --- | --- | --- | --- | --- | --- | --- | --- | --- | --- | --- | --- | --- | --- | --- | --- | --- | --- |
| COC1CCC(n2c(C3CCCC(=O)N3c3ccccc3)nc3cc(-c4c(C)noc4C)ccc32)CC1 (stereo not shown) [iCBP5-5] | 915.174 | 914.49 | 915.362 | 915.368 | 914.907 | 914.429 | 913.858 | 914.04 | 913.557 | 913.257 | 911.399 | 910.65 | 909.717 | 910.942 | 910.368 | 911.15 | 44.3 nM | 910.375 | 914.969 | – |
| COC1CCC(n2c(C3CCCC(=O)N3c3cccc(C(C)(C)C)c3)nc3cc(-c4c(C)noc4C)ccc32)CC1 (stereo not shown) [iCBP-6] | 893.145 and 893.496 and 892.759 | 891.612 and 893.465 and 892.592 | 892.684 and 894.151 and 892.213 | 892.641 and 893.04 and 893.233 | 892.502 and 892.231 and 892.986 | 891.878 and 891.94 and 891.268 | 891.027 and 892.27 and 891.532 | 892.42 and 891.618 and 892.241 | 890.537 and 890.96 and 891.609 | 889.07 and 889.984 and 889.085 | 888.52 and 887.496 and 888.851 | 887.2 and 888.101 and 888.455 | 887.415 and 887.704 and 886.214 | 888.032 and 886.878 and 886.638 | 887.475 and 888.923 and 888.41 | 888.712 and 888.775 and 886.626 | 20 nM and 15.2 nM and 54.7 nM | 887.696 and 887.896 and 886.89 | 892.536 and 893.196 and 892.626 | ΔTm (°C) EP300 ([2]; Figure 3B, DSF, EP300): 14.3 °C; ΔTm (°C) BRD4-BD1 ([3]; Figure 3A, DSF): 3.2 °C; ΔTm (°C) CBP ([4]; Figure 3A, CBP bromodomain): 15.3 °C; ΔTm (°C) CBP ([4]; Figure 3B, CBP): 15.3 °C; DSF ΔTm (°C) ([4]; Figure 3C, DSF (values equal CBP column)): 15.3 °C; Kd ([1]; Figure 3C, read-out: MST Kd): 30 nM |
| COc1ccc(CCc2nc3cc(-c4c(C)noc4C)ccc3n2C[C@H](C)N2CCOCC2)cc1Cl [SGC-CBP30] | – | – | – | – | – | – | – | – | – | – | – | – | – | – | – | – | – | – | – | ΔTm (°C) ([2]; DSF thermal shift vs DMSO, EP300 bromodomain, Fig 2B): 7.9 °C; ΔTm (°C) ([3]; DSF thermal shift vs DMSO, Fig 2B): 0 °C |

— publication PMC11045757, “Group 3 medulloblastoma transcriptional networks collapse under domain specific EP300/CBP inhibition” (Nature Communications, 2024)
